From ChEMBL document CHEMBL1152283, “Design at the atomic level: generation of novel hybrid biaryloxazolidinones as promising new antibiotics” (Bioorg Med Chem Lett, 2008) come the findings set out here.

In test [1] the test system is Escherichia coli. Put plainly: Inhibition of protein synthesis in Escherichia coli by translation assay.
Test [2] deals with Haemophilus influenzae. The test is described as follows: Antimicrobial activity against Haemophilus influenzae 895 (AcrB-KO) by NCCLS method. Type of test: functional.
For another test, the system named is Enterococcus faecalis. Put plainly: Antimicrobial activity against linezolid-resistant Enterococcus faecalis P5 by NCCLS method. It is filed as functional.
Another test concerns Streptococcus pneumoniae. Put plainly: Antimicrobial activity against Streptococcus pneumoniae 02J1175 expressing mef(A) gene by NCCLS method. Type of test: functional.
Another test deals with Streptococcus pyogenes. The test is described as follows: Antimicrobial activity against Streptococcus pyogenes Msr 610 expressing erm(B) gene by NCCLS method. Type of test: functional.
For test [3], the system named is Haemophilus influenzae. Put plainly: Antimicrobial activity against Haemophilus influenzae RD1 by NCCLS method. It is filed as functional.
In test [4] the test system is Escherichia coli. The test is described as follows: Inhibition of protein synthesis in Escherichia coli S30 extract by translation assay. It is filed as functional.

SMILES strings stand for the structures. Values after ≈ are worked out from the molar mass of the structure shown.

With `CC(=O)NC[C@H]1CN(c2ccc(/C=C/CCCNC(=O)CCc3cccnc3)c(F)c2)C(=O)O1`, the IC50 in the test on Escherichia coli [1] was 16000 nM. Besides, the MIC against Haemophilus influenzae [2] was 8 µg/mL (≈ 17.1 µM); in the test on Enterococcus faecalis, 32 µg/mL (≈ 68.3 µM); against Streptococcus pneumoniae, 2 µg/mL (≈ 4.27 µM); against Streptococcus pyogenes, 2 µg/mL (≈ 4.27 µM); against Haemophilus influenzae [3], > 128 µg/mL.

Compound `CC(=O)NC[C@H]1CN(c2ccc(-c3ccc(CNC(=O)CCc4cccnc4)cc3)c(F)c2)C(=O)O1` yielded a half-maximal inhibitory concentration (IC50) in the test with Escherichia coli [1] of 580 nM. In addition, the MIC in the test with Haemophilus influenzae [2] is 2 µg/mL (≈ 4.08 µM); in the test with Enterococcus faecalis, 16 µg/mL (≈ 32.6 µM); against Streptococcus pneumoniae, 0.5 µg/mL (≈ 1.02 µM); against Streptococcus pyogenes, 0.5 µg/mL (≈ 1.02 µM); with Haemophilus influenzae [3] it was > 128 µg/mL.

Regarding `CC(=O)NC[C@H]1CN(c2ccc(N3CCC(CNC(=O)/C=C/c4c(C)[nH]c(=O)[nH]c4=O)CC3)c(F)c2)C(=O)O1`, the IC50 in the test on Escherichia coli [4] turned out to be 260 nM. The MIC against Haemophilus influenzae [2] is 8 µg/mL (≈ 14.7 µM); against Streptococcus pneumoniae, 4 µg/mL (≈ 7.37 µM); with Streptococcus pyogenes, 4 µg/mL (≈ 7.37 µM); with Haemophilus influenzae [3], > 128 µg/mL.

Regarding `CC(=O)NC[C@H]1CN(c2ccc(-c3ccc(CNC(=O)/C=C/c4c(C)[nH]c(=O)[nH]c4=O)cc3)c(F)c2)C(=O)O1`, the IC50 in the test on Escherichia coli [1] is 30 nM. In addition, the MIC in the test on Haemophilus influenzae [2] is ≤ 0.25 µg/mL; in the test with Enterococcus faecalis it was 16 µg/mL (≈ 29.9 µM); in the test with Streptococcus pneumoniae, ≤ 0.25 µg/mL; with Streptococcus pyogenes it was ≤ 0.25 µg/mL; in the test with Haemophilus influenzae [3] it was > 128 µg/mL.

For the compound `CC(=O)NC[C@H]1CN(c2ccc(/C=C/CCCNC(=O)/C=C/c3c(C)[nH]c(=O)[nH]c3=O)c(F)c2)C(=O)O1`, the midpoint of inhibition in the test on Escherichia coli [1], the IC50, lay at 30 nM. Further, the MIC in the test with Haemophilus influenzae [2] is 1 µg/mL (≈ 1.95 µM); against Enterococcus faecalis, 32 µg/mL (≈ 62.3 µM); in the test on Streptococcus pneumoniae it was 1 µg/mL (≈ 1.95 µM); against Streptococcus pyogenes, 1 µg/mL (≈ 1.95 µM); against Haemophilus influenzae [3], > 128 µg/mL.

Turning to `CC(=O)NC[C@H]1CN(c2ccc(N3CCOCC3)c(F)c2)C(=O)O1` [LINEZOLID], the MIC against Haemophilus influenzae [2] amounted to 8 µg/mL (≈ 23.7 µM); in the test on Enterococcus faecalis, 32 µg/mL (≈ 94.9 µM); in the test on Streptococcus pyogenes, 1 µg/mL (≈ 2.96 µM); in the test with Haemophilus influenzae [3] it was 16 µg/mL (≈ 47.4 µM).

Turning to `CSC[S@@+]([O-])CC(CO)NC(=O)/C=C/c1c(C)[nH]c(=O)[nH]c1=O` (some centres undefined) [SPARSOMYCIN], the IC50 in the test on Escherichia coli [1] is ≤ 20 nM. For the same compound, the MIC in the test on Haemophilus influenzae [2] was 8 µg/mL (≈ 22.1 µM); against Enterococcus faecalis, > 128 µg/mL; in the test with Streptococcus pneumoniae it was 2 µg/mL (≈ 5.53 µM); against Streptococcus pyogenes, 2 µg/mL (≈ 5.53 µM); against Haemophilus influenzae [3] it was 8 µg/mL (≈ 22.1 µM).
